Consider three compounds from PubChem BioAssay (NCI).

≈ marks a conversion by molar mass, not a printed value.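 Protocol summary: plate cells (96-well), add compound at 5 concentrations, incubate 48 h, interpolate endpoints linearly. GI50 marks 50% less growth. TGI is the concentration that stops growth completely.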

Test in all cases: NCI tumour cell line growth inhibition, 48 h
The subject of experiment [1] is EKVX NSCLC.
Experiment [2] relates to SK-OV-3 ovarian.
The subject of experiment [3] is HCT-15 colon.
In experiment [4] the test system is SR leukemia.
For experiment [5], the system named is SNB-75 CNS.
In experiment [6] the test system is OVCAR-5 ovarian.
Experiment [7] concerns MOLT-4 leukemia.
Experiment [8] relates to OVCAR-4 ovarian.
In experiment [9] the test system is SK-MEL-5 melanoma.
Experiment [10] deals with U251 CNS.

For the compound `O=c1oc2ccccc2c(O)c1Cc1ccc(Cc2c(O)c3ccccc3oc2=O)cc1`, the TGI in experiment [1], in [2], in experiment [3], in [4], in [5] and in [6] was above 100 µM throughout. Further, the TGI in experiment [7], in experiment [8], in experiment [9] and in experiment [10] was above 100 µM throughout.
As for `O=C1NN(C2=NNC3(C(=O)N2)c2ccccc2-c2ccccc23)C(c2ccccc2)=N/C1=C/c1ccc(Cl)cc1`, the GI50 in [1] is 38.7 µg/mL (≈ 71 µM); in experiment [2], 54 µg/mL (≈ 99.1 µM); in experiment [3], 54.1 µg/mL (≈ 99.3 µM); in experiment [4], 62 µg/mL (≈ 114 µM); in [5] it was 57.2 µg/mL (≈ 105 µM); in [6] it was 132 µg/mL (≈ 242 µM). Besides, the GI50 is 42.7 µg/mL (≈ 78.4 µM) in [7], 62.8 µg/mL (≈ 115 µM) in [8], 46.4 µg/mL (≈ 85.1 µM) in experiment [9] and 41.3 µg/mL (≈ 75.8 µM) in [10]. Also, the TGI in experiment [1] was 108 µg/mL; in experiment [2], above 150 µg/mL; in experiment [3], above 150 µg/mL; in experiment [4], above 150 µg/mL; in experiment [5], above 150 µg/mL; in [6], above 150 µg/mL. The TGI in [7] was above 150 µg/mL; in experiment [8] it was above 150 µg/mL; in experiment [9], above 150 µg/mL; in experiment [10] it was 143 µg/mL.
Turning to `COC(=O)C(Cc1cn(C(C)n2cc(CC(NC(C)=O)C(=O)OC)c3ccccc32)c2ccccc12)NC(C)=O` (stereo not given), the TGI is above 100 µM in [1]; above 100 µM in experiment [2]; above 100 µM in experiment [3]; above 100 µM in [4]; 83.3 µM in experiment [5]; above 100 µM in experiment [6]. Moreover, the TGI in experiment [7], in experiment [8], in experiment [9] and in [10] was above 100 µM in each case.
